Results published in patent US20240294541A1, “COMPOUNDS CONSTITUTING C20-MODIFIED SALINOMYCIN DERIVATIVES, A METHOD FOR OBTAINING THE SAME, A COMPOSITION CONTAINING THE SAME AND A USE OF SAID COMPOUNDS” (FILECLO SPOLKA Z OGRANICZONA ODPOWIEDZIALNOSCIA, priority 2021, published 2024).

Experiments:
Format in all cases: cell-based
[1] = test system: A2780Cis (cisplatin-resistant human ovarian cancer); assay: In vitro cytotoxicity, SRB assay, A2780Cis; conditions: for IC50: Homo sapiens, A2780cis, read-out: IC50 (nM) A2780Cis
[2] = test system: Hs294T (human melanoma); assay: cells; conditions: Table 4; for IC50: Hs 294T, Hs294T human melanoma cells, read-out: IC50 (nM) Hs294T; for SI Hs294T: selectivity coefficient vs normal BALB/3T3 fibroblasts
[3] = test system: PLC/PRF/5 (human liver cancer); assay: cells; conditions: Table 4; for IC50: PLC/PRF/5 human liver cancer cells, read-out: IC50 (nM) PLC/PRF/5; for SI PLC/PRF/5: selectivity coefficient vs normal BALB/3T3 fibroblasts
[4] = test system: SNU-16 (human gastric cancer); assay: cells; conditions: Table 4; for IC50: SNU-16 human gastric cancer cells, read-out: IC50 (nM) SNU-16; for SI SNU-16: selectivity coefficient vs normal BALB/3T3 fibroblasts
[5] = test system: MIA PaCa-2 (human pancreatic cancer); assay: cells; conditions: Table 4; for IC50: MIA PaCa-2 human pancreatic cancer cells, read-out: IC50 (nM) MIA PaCa-2; for SI MIA PaCa-2: selectivity coefficient vs normal BALB/3T3 fibroblasts
[6] = test system: BALB/3T3 (normal mouse fibroblasts); assay: In vitro cytotoxicity, SRB assay, normal BALB/3T3 fibroblasts; conditions: Table 4; BALB/3T3 normal mouse fibroblasts; read-out: IC50 (nM) BALB3T3 normal cells
[7] = test system: MV-4-11 (human biphenotypic leukaemia); assay: In vitro cytotoxicity, MTT assay, MV-4-11; conditions: for IC50: Homo sapiens, MV4-11, read-out: IC50 (nM) MV4-11
[8] = test system: NCI-H358 (human lung cancer); assay: cells; conditions: Table 4; for IC50: NCI-H358 human lung cancer cells, read-out: IC50 (nM) NCI-H358; for SI NCI-H358: selectivity coefficient vs normal BALB/3T3 fibroblasts

SMILES	SI A2780Cis [1]	IC50 [1] [nM]	IC50 [2] [nM]	SI Hs294T [2]	IC50 [3] [nM]	SI PLC/PRF/5 [3]	IC50 [4] [nM]	SI SNU-16 [4]	IC50 [5] [nM]	SI MIA PaCa-2 [5]	IC50 [6] [nM]	SI MV4-11 [7]	IC50 [7] [nM]	IC50 [8] [nM]	SI NCI-H358 [8]
CC[C@@H](C(=O)[C@@H](C)[C@@H](O)[C@H](C)[C@@H]1O[C@@H]([C@@H](CC)C(=O)O)CC[C@@H]1C)[C@H]1O[C@]2(C=C[C@@H](NC(=O)OCCOc3ccccc3)[C@]3(CC[C@@](C)([C@H]4CC[C@](O)(CC)[C@H](C)O4)O3)O2)[C@H](C)C[C@@H]1C [FLC-00460-1•Na]	94.4	0.98	309	0.3	17.6	5.3	130	0.7	13.6	6.8	92.8	50.0	1.86	282	0.33
CC[C@@H](C(=O)[C@@H](C)[C@@H](O)[C@H](C)[C@@H]1O[C@@H]([C@@H](CC)C(=O)O)CC[C@@H]1C)[C@H]1O[C@]2(C=C[C@@H](NC(=O)C3CCCC3)[C@]3(CC[C@@](C)([C@H]4CC[C@](O)(CC)[C@H](C)O4)O3)O2)[C@H](C)C[C@@H]1C [FLC-00455-1•Na]	232.6	1.39	140	2.3	60.7	5.3	165	2.0	33	9.8	323	112.3	2.87	54.5	5.91
CC[C@@H](C(=O)[C@@H](C)[C@@H](O)[C@H](C)[C@@H]1O[C@@H]([C@@H](CC)C(=O)O)CC[C@@H]1C)[C@H]1O[C@]2(C=C[C@@H](NC(=S)Nc3cccc(C(F)(F)F)c3)[C@]3(CC[C@@](C)([C@H]4CC[C@](O)(CC)[C@H](C)O4)O3)O2)[C@H](C)C[C@@H]1C [FLC-00386-1]			147		10.2		10.1		11.3					51.3	
CC[C@@H](C(=O)[C@@H](C)[C@@H](O)[C@H](C)[C@@H]1O[C@@H]([C@@H](CC)C(=O)O)CC[C@@H]1C)[C@H]1O[C@]2(C=C[C@@H](NC(=O)Oc3ccccc3)[C@]3(CC[C@@](C)([C@H]4CC[C@](O)(CC)[C@H](C)O4)O3)O2)[C@H](C)C[C@@H]1C [FLC-00429-1•Na]			115		27		168		39.8					76.1	
CC[C@@H](C(=O)[C@@H](C)[C@@H](O)[C@H](C)[C@@H]1O[C@@H]([C@@H](CC)C(=O)O)CC[C@@H]1C)[C@H]1O[C@]2(C=C[C@@H](NC(=O)C(=O)NC)[C@]3(CC[C@@](C)([C@H]4CC[C@](O)(CC)[C@H](C)O4)O3)O2)[C@H](C)C[C@@H]1C [FLC-00443-1•Na]	23.3	176	3970	1.0	477	8.6	6190	0.7	554	7.4	4110	23.4	175	2620	1.57
CC[C@@H](C(=O)[C@@H](C)[C@@H](O)[C@H](C)[C@@H]1O[C@@H]([C@@H](CC)C(=O)O)CC[C@@H]1C)[C@H]1O[C@]2(C=C[C@@H](NC(=O)C(N)=O)[C@]3(CC[C@@](C)([C@H]4CC[C@](O)(CC)[C@H](C)O4)O3)O2)[C@H](C)C[C@@H]1C [FLC-00376-1•Na]	10.6	436			1360	3.4			1850	2.5	4640	7.0	663	5310	0.87
